Laboratory results from patent US20230278972A1, “SUBSTITUTED HALOALKYL SULFONANILIDE HERBICIDES” (FMC Corporation, priority 2020, published 2023).

Tests used:
Format in all cases: in vivo
[1] = system: wheat (Triticum aestivum); experiment: Test A postemergence, wheat; settings: Postemergence, 0 to 100 scale (0 no effect, 100 complete control); for Plant response rating, Wheat: 125 g ai/ha; for Wheat plant response rating: 500 g ai/ha, visual injury vs untreated controls after approx. 10 days
Summary of the method: (§1)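 Greenhouse pot test in a loam–sand blend; compounds delivered in a non-phytotoxic solvent carrying a surfactant, applied either as a directed spray to soil at seeding or over seedlings 2 to 10 cm high with one to two leaves.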

[2] = system: Ryegrass, Italian (Italian ryegrass, Lolium multiflorum); experiment: Test A preemergence, Ryegrass, Italian; settings: Preemergence; for Ryegrass, Italian plant response rating: visual injury on 0 to 100 scale (0 no effect, 100 complete control), approximately 10 days; for Plant response rating, Ryegrass, Italian: 0 to 100 scale (0 no effect, 100 complete control)
Summary of the method: (§2)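 Formulated with a surfactant in a non-phytotoxic solvent, compounds are applied to loam–sand pots, either to bare soil immediately after seeding (preemergence) or to seedlings of 2 to 10 cm bearing one to two leaves (postemergence).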

kochia (Bassia scoparia) [3] = experiment: Test A postemergence, kochia; settings: Postemergence, 0 to 100 scale (0 no effect, 100 complete control); for Plant response rating, Kochia: 125 g ai/ha; for Kochia plant response rating: 500 g ai/ha, visual injury vs untreated controls after approx. 10 days
Summary of the method: as §2

kochia (Bassia scoparia) [4] = experiment: Test A preemergence, kochia; settings: Preemergence; for Kochia plant response rating: visual injury on 0 to 100 scale (0 no effect, 100 complete control), approximately 10 days; for Plant response rating, Kochia: 0 to 100 scale (0 no effect, 100 complete control)
Summary of the method: as §2

[5] = system: pigweed (Amaranthus retroflexus); experiment: Test A postemergence, pigweed; settings: Postemergence, 0 to 100 scale (0 no effect, 100 complete control); for Plant response rating, Pigweed: 125 g ai/ha; for Pigweed plant response rating: 500 g ai/ha, visual injury vs untreated controls after approx. 10 days
Summary of the method: as §2

[6] = system: pigweed (Amaranthus retroflexus); experiment: Test A preemergence, pigweed; settings: for Pigweed plant response rating: visual injury on 0 to 100 scale (0 no effect, 100 complete control), approximately 10 days; for Plant response rating, Pigweed: 0 to 100 scale (0 no effect, 100 complete control)
Source text: Seeds of plant species selected from barnyardgrass (Echinochloa crus-galli), kochia (Bassia scoparia), ragweed (common ragweed, Ambrosia artemisiifolia), Ryegrass, Italian (Italian ryegrass, Lolium multiflorum), Foxtail, Giant (giant foxtail, Setaria faberi), and pigweed (Amaranthus retroflexus) were planted into a blend of loam soil and sand and treated preemergence with a directed soil spray using test chemicals formulated in a non-phytotoxic solvent mixture which included a surfactant. At the same time, plants selected from these weed species and also wheat (Triticum aestivum), corn (Zea mays), blackgrass (Alopecurus myosuroides), and galium (catchweed bedstraw, Galium aparine) were planted in pots containing the same blend of loam soil and sand and treated with postemergence applications of test chemicals formulated in the same manner. Plants ranged in height from 2 to 10 cm and were in the one- to two-leaf stage for the postemergence treatment. […] A dash (-) response means no test result.

[7] = system: Foxtail, Giant (giant foxtail, Setaria faberi); experiment: Test A postemergence, Foxtail, Giant; settings: Postemergence, 0 to 100 scale (0 no effect, 100 complete control); for Plant response rating, Foxtail, Giant: 125 g ai/ha; for Foxtail, Giant plant response rating: 500 g ai/ha, visual injury vs untreated controls after approx. 10 days
Summary of the method: as §2

[8] = system: blackgrass (Alopecurus myosuroides); experiment: Test A postemergence, blackgrass; settings: Postemergence, 0 to 100 scale (0 no effect, 100 complete control); for Plant response rating, Blackgrass: 125 g ai/ha; for Blackgrass plant response rating: 500 g ai/ha, visual injury vs untreated controls after approx. 10 days
Summary of the method: as §2

corn (Zea mays) = experiment: Test A postemergence, corn; settings: Postemergence, 0 to 100 scale (0 no effect, 100 complete control); for Plant response rating, Corn: 125 g ai/ha; for Corn plant response rating: 500 g ai/ha, visual injury vs untreated controls after approx. 10 days
Summary of the method: as §2

[9] = system: Foxtail, Giant (giant foxtail, Setaria faberi); experiment: Test A preemergence, Foxtail, Giant; settings: Preemergence; for Foxtail, Giant plant response rating: visual injury on 0 to 100 scale (0 no effect, 100 complete control), approximately 10 days; for Plant response rating, Foxtail, Giant: 0 to 100 scale (0 no effect, 100 complete control)
Summary of the method: as §2

[10] = system: barnyardgrass (Echinochloa crus-galli); experiment: Test A preemergence, barnyardgrass; settings: Preemergence; for Barnyardgrass plant response rating: visual injury on 0 to 100 scale (0 no effect, 100 complete control), approximately 10 days; for Plant response rating, Barnyardgrass: 0 to 100 scale (0 no effect, 100 complete control)
Summary of the method: as §2

[11] = system: galium (catchweed bedstraw, Galium aparine); experiment: Test A postemergence, galium; settings: Postemergence, 0 to 100 scale (0 no effect, 100 complete control); for Plant response rating, Galium: 125 g ai/ha; for Galium plant response rating: 500 g ai/ha, visual injury vs untreated controls after approx. 10 days
Summary of the method: as §1

[12] = system: ragweed (common ragweed, Ambrosia artemisiifolia); experiment: Test A preemergence, ragweed; settings: Preemergence; for Ragweed plant response rating: visual injury on 0 to 100 scale (0 no effect, 100 complete control), approximately 10 days; for Plant response rating, Ragweed: 0 to 100 scale (0 no effect, 100 complete control)
Summary of the method: as §2

[13] = system: ragweed (common ragweed, Ambrosia artemisiifolia); experiment: Test A postemergence, ragweed; settings: Postemergence, 0 to 100 scale (0 no effect, 100 complete control); for Plant response rating, Ragweed: 125 g ai/ha; for Ragweed plant response rating: 500 g ai/ha, visual injury vs untreated controls after approx. 10 days
Summary of the method: as §2

[14] = system: Ryegrass, Italian (Italian ryegrass, Lolium multiflorum); experiment: Test A postemergence, Ryegrass, Italian; settings: Postemergence, 0 to 100 scale (0 no effect, 100 complete control); for Plant response rating, Ryegrass, Italian: 125 g ai/ha; for Ryegrass, Italian plant response rating: 500 g ai/ha, visual injury vs untreated controls after approx. 10 days
Summary of the method: as §2

[15] = 125 g ai/ha, visual injury, approx. 10 days

Compound | Plant response rating, Wheat ([1]; visual injury approx. 10 days) | Wheat plant response rating [1] | Ryegrass, Italian plant response rating ([2]; 125 g ai/ha) | Plant response rating, Ryegrass, Italian ([2]; 500 g ai/ha) | Plant response rating, Kochia (kochia (Bassia scoparia) [3]; visual injury approx. 10 days) | Kochia plant response rating (kochia (Bassia scoparia) [3]) | Kochia plant response rating (kochia (Bassia scoparia) [4]; 125 g ai/ha) | Plant response rating, Kochia (kochia (Bassia scoparia) [4]; 500 g ai/ha) | Plant response rating, Pigweed ([5]; visual injury approx. 10 days) | Pigweed plant response rating [5] | Pigweed plant response rating ([6]; 125 g ai/ha) | Plant response rating, Pigweed ([6]; 500 g ai/ha) | Plant response rating, Foxtail, Giant ([7]; visual injury approx. 10 days) | Foxtail, Giant plant response rating [7] | Blackgrass plant response rating [8] | Corn plant response rating (corn (Zea mays)) | Plant response rating, Barnyardgrass ([10]; 500 g ai/ha) | Galium plant response rating [11] | Ragweed plant response rating [13] | Ryegrass, Italian plant response rating [14] | also measured
Cc1cc(C)c(N(S(=O)(=O)C(F)(F)F)S(=O)(=O)C(F)(F)F)cc1-c1cc(Cl)nn(C)c1=O [Compound 74] | 60 | 70 | 80 | 100 | 30 | 90 | 70 | 100 | 80 | 90 | 60 | 100 | 40 | 80 | 50 | 10 | 100 | 90 | 30 | 70 | Plant response rating, Blackgrass ([8]; visual injury approx. 10 days): 40; Plant response rating, Corn (corn (Zea mays); visual injury approx. 10 days): 0; Foxtail, Giant plant response rating ([9]; 125 g ai/ha): 100; Plant response rating, Foxtail, Giant ([9]; 500 g ai/ha): 100; Barnyardgrass plant response rating ([10]; 125 g ai/ha): 90; Plant response rating, Galium ([11]; visual injury approx. 10 days): 50; Ragweed plant response rating ([12]; 125 g ai/ha): 70; Plant response rating, Ragweed ([12]; 500 g ai/ha): 90; Plant response rating, Ragweed ([13]; visual injury approx. 10 days): 0; Plant response rating, Ryegrass, Italian ([14]; visual injury approx. 10 days): 20
Cc1cc(C)c(N(S(=O)(=O)C(F)(F)F)S(=O)(=O)C(F)(F)F)cc1C1=NOC(C)(CCl)C1 (stereo not drawn) [Compound 227] |  | 40 |  |  |  | 60 |  |  |  | 50 |  |  |  | 20 | 20 | 0 | 90 | 90 | 10 | 0 | Plant response rating, Wheat [1]: 70; Plant response rating, Ryegrass, Italian [2, 15]: 40; Ryegrass, Italian plant response rating ([2]; 500 g ai/ha): 100; Plant response rating, Kochia (kochia (Bassia scoparia) [3]): 10; Plant response rating, Kochia (kochia (Bassia scoparia) [4]; [15]): 60; Kochia plant response rating (kochia (Bassia scoparia) [4]; 500 g ai/ha): 90; Plant response rating, Pigweed [5]: 20; Plant response rating, Pigweed [6, 15]: 50; Pigweed plant response rating ([6]; 500 g ai/ha): 80; Plant response rating, Foxtail, Giant [7]: 0; Plant response rating, Blackgrass [8]: 0; Plant response rating, Corn (corn (Zea mays)): 10; Plant response rating, Foxtail, Giant [9, 15]: 90; Foxtail, Giant plant response rating ([9]; 500 g ai/ha): 100; Plant response rating, Barnyardgrass [10, 15]: 60; Plant response rating, Galium [11]: 40; Plant response rating, Ragweed [12, 15]: 30; Ragweed plant response rating ([12]; 500 g ai/ha): 80; Plant response rating, Ragweed [13]: 0; Plant response rating, Ryegrass, Italian [14]: 0
Cc1cc(C)c(-c2cc(Cl)nn(C)c2=O)cc1NS(=O)(=O)C(F)(F)F [Compound 72] | 60 | 70 | 90 | 100 | 40 | 90 | 100 | 100 | 60 | 80 | 80 | 100 | 90 | 90 | 80 | 50 | 100 | 90 | 70 | 80 | Plant response rating, Blackgrass ([8]; visual injury approx. 10 days): 50; Plant response rating, Corn (corn (Zea mays); visual injury approx. 10 days): 0; Foxtail, Giant plant response rating ([9]; 125 g ai/ha): 100; Plant response rating, Foxtail, Giant ([9]; 500 g ai/ha): 100; Barnyardgrass plant response rating ([10]; 125 g ai/ha): 90; Plant response rating, Galium ([11]; visual injury approx. 10 days): 70; Ragweed plant response rating ([12]; 125 g ai/ha): 80; Plant response rating, Ragweed ([12]; 500 g ai/ha): 90; Plant response rating, Ragweed ([13]; visual injury approx. 10 days): 20; Plant response rating, Ryegrass, Italian ([14]; visual injury approx. 10 days): 60
Cc1cc(C)c(N(S(=O)(=O)C(F)(F)F)S(=O)(=O)C(F)(F)F)cc1-c1ccnn(C)c1=O [Compound 76] | 40 | 80 | 60 | 100 | 50 | 90 | 60 | 90 | 70 | 90 | 50 | 100 | 90 | 90 | 50 | 70 | 90 | 100 | 90 | 80 | Plant response rating, Blackgrass ([8]; visual injury approx. 10 days): 50; Plant response rating, Corn (corn (Zea mays); visual injury approx. 10 days): 0; Foxtail, Giant plant response rating ([9]; 125 g ai/ha): 100; Plant response rating, Foxtail, Giant ([9]; 500 g ai/ha): 100; Barnyardgrass plant response rating ([10]; 125 g ai/ha): 90; Plant response rating, Galium ([11]; visual injury approx. 10 days): 90; Ragweed plant response rating ([12]; 125 g ai/ha): 70; Plant response rating, Ragweed ([12]; 500 g ai/ha): 90; Plant response rating, Ragweed ([13]; visual injury approx. 10 days): 60; Plant response rating, Ryegrass, Italian ([14]; visual injury approx. 10 days): 70
